Test results taken from patent US12516293B2, “Reagents and methods with Wnt agonists and bioactive lipids for generating and expanding cardiomyocytes” (The Board of Trustees of the Leland Stanford Junior …, priority 2018, dated 2026).

Experiments:
hiPSC-CMs = assay: ki67/pHH3 proliferation and binucleation of hiPSC-CMs (immunofluorescence); type: cell-based, human
Protocol: Immunohistochemistry was performed with the incubation of primary antibodies overnight followed by 2 hours of incubation with various Alexa fluorescence conjugated secondary antibodies. Images were made with confocal (Zeiss LSM 710) or regular immunofluorescence microscopy (Leica DM IL LED). Primaries used in this study were cardiac troponin T (MS-295, Fisher), Ki67 (ab15580, Abcam), pHH3 (#9701, Cell Signaling), aurora B (ab2254, Abcam), alpha sarcomeric actinin ([…], Sigma-Aldrich), MLC2V (ab48003, Abcam), phospo AKT […] (#9275, Cell Signaling). […] To examine this, the percentage was determined of troponin T (TnT) positive hiPSC-CMs that express the cell cycle marker ki67 or the mitosis marker phospho-histone H3 (pHH3) at each passage after treatment with CHIR or DMSO (CTR) (FIG. 2A-C). […] The short-term (24 hrs) changes were assessed in proliferation rate of day 12 hiPSC-CMs (P0) after treatment with CHIR-, CTR-, or C59, a specific inhibitor of Wnt signaling (FIG. 2I-J).

TCF/LEF = assay: TOPFlash TCF/LEF luciferase reporter in day 30 hiPSC-CMs; type: cell-based, human; conditions: day 30 cardiomyocytes, 2-hour treatment
Protocol: […] and day 30 hiPSC-CMs were replated in 96-well plates and cultured for 2-3 days before transfection with Lipofectamine (Invitrogen) and TOPFlash (TCF/LEF) luciferase Wnt signaling reporter plasmid (M50, Addgene) at 100 ng/well. After 48 hours, media was changed, and cells were subjected to different treatments for 2 hours before lysis and luciferase (Promega) luminescence was measured with a standard luminescence plate reader. To determine the mechanism through which S1P/LPA regulate cell cycle activity in hiPSC-CMs, it was evaluated whether S1P and LPA treatment can directly stimulate Wnt/β-catenin signaling in day 30 cardiomyocytes using the TOPFlash (TCF/LEF-luciferase) reporter.

In the case of `Cc1c[nH]c(-c2cnc(NCCNc3ccc(C#N)cn3)nc2-c2ccc(Cl)cc2Cl)n1` [CHIR99021], the “extension of window of proliferation (ki67, pHH3)” value (hiPSC-CMs; CHIR vs CTR at each passage) is reported as “up to 5 passages”, the binucleation (hiPSC-CMs; compared with CTR or C59 treated cells) is reported as “less binucleation” and the “ki67 expression / proliferation rate” value (hiPSC-CMs; day 12 hiPSC-CMs (P0), 24 hrs treatment) is reported as “significant difference in ki67 expression”. For the same compound, the “TCF/LEF-luciferase activity (TOPFlash)” value (TCF/LEF) was “activated”.
